# Reference: article PMC5218480 (PLoS ONE, 2017)
# Test system: MV-4-11 cells
# Test: Gene expression microarray analysis (Affymetrix PrimeView) and GSEA
# Format: cell-based, human
# Design: RFU PODN (11730768_x_at) / Fold change /veh PODN (11730768_x_at) / RFU LINC00158 (11744669_a_at) / Fold change /veh LINC00158 (11744669_a_at) / RFU DUSP10 (11751237_a_at) / Fold change /veh DUSP10 (11751237_a_at) / RFU ID3 (11757404_x_at) / Fold change /veh ID3 (11757404_x_at) / RFU PLEKHG5 (11737974_s_at) / Fold change /veh PLEKHG5 (11737974_s_at) / RFU LRRC4B (11730491_at) / Fold change /veh LRRC4B (11730491_at) / RFU GIMAP4 (11747438_a_at) / Fold change /veh GIMAP4 (11747438_a_at) / RFU KRT8 (11758183_x_at) / Fold change /veh KRT8 (11758183_x_at) / RFU CNN1 (11734310_a_at) / Fold change /veh CNN1 (11734310_a_at) / RFU VPS37D (11726825_at) / Fold change /veh VPS37D (11726825_at) / RFU C10orf10 (11716522_x_at) / Fold change /veh C10orf10 (11716522_x_at) / RFU KIR2DL2 /// KIR2DL4 /// KIR2DL5A /// KIR2DL5B /// KIR2DS1 /// KIR2DS2 /// KIR2DS3 /// KIR2DS4 /// KIR3DL3 /// KIR3DL3 /// KIR3DS1 (11738374_at) / Fold change /veh KIR2DL2 /// KIR2DL4 /// KIR2DL5A /// KIR2DL5B /// KIR2DS1 /// KIR2DS2 /// KIR2DS3 /// KIR2DS4 /// KIR3DL3 /// KIR3DL3 /// KIR3DS1 (11738374_at) / RFU C1QL1 (11718748_at) / Fold change /veh C1QL1 (11718748_at) / RFU TMPRSS4 (11747572_a_at) / Fold change /veh TMPRSS4 (11747572_a_at) / RFU HAMP (11756126_x_at) / Fold change /veh HAMP (11756126_x_at) / RFU RNFT2 (11725882_a_at) / Fold change /veh RNFT2 (11725882_a_at) / RFU NR4A2 (11747474_a_at) / Fold change /veh NR4A2 (11747474_a_at) / RFU ABCC12 (11746883_a_at) / Fold change /veh ABCC12 (11746883_a_at) / RFU TMEM136 (11760407_x_at) / Fold change /veh TMEM136 (11760407_x_at) / RFU CLDN22 /// WWC2 (11732394_at) / Fold change /veh CLDN22 /// WWC2 (11732394_at) / RFU HLA-DPB1 (11760878_x_at) / Fold change /veh HLA-DPB1 (11760878_x_at) / RFU SPINT1 (11716480_a_at) / Fold change /veh SPINT1 (11716480_a_at) / RFU GAP43 (11754022_s_at) / Fold change /veh GAP43 (11754022_s_at) / RFU A4GNT (11735810_at) / Fold change /veh A4GNT (11735810_at) / RFU PRB3 (11715151_x_at) / Fold change /veh PRB3 (11715151_x_at) / RFU TUBB4B (11761932_at) / Fold change /veh TUBB4B (11761932_at) / RFU CAPN14 (11732068_a_at) / Fold change /veh CAPN14 (11732068_a_at) / RFU TMCC2 (11721928_a_at) / Fold change /veh TMCC2 (11721928_a_at) / RFU IRGQ (11745062_a_at) / Fold change /veh IRGQ (11745062_a_at) / RFU FAM174B (11720279_a_at) / Fold change /veh FAM174B (11720279_a_at) / RFU TMPRSS4 (11748680_a_at) / Fold change /veh TMPRSS4 (11748680_a_at) / RFU FAM212B (11763350_a_at) / Fold change /veh FAM212B (11763350_a_at) / RFU PLEKHG5 (11743358_a_at) / Fold change /veh PLEKHG5 (11743358_a_at) / RFU ZSCAN30 (11745921_a_at) / Fold change /veh ZSCAN30 (11745921_a_at) / RFU CMKLR1 (11741424_a_at) / Fold change /veh CMKLR1 (11741424_a_at) / RFU LOC101060620 /// MAPK8IP1 (11723275_at) / Fold change /veh LOC101060620 /// MAPK8IP1 (11723275_at) / RFU SPTSSB (11747773_x_at) / Fold change /veh SPTSSB (11747773_x_at) / RFU PRSS12 (11739890_at) / Fold change /veh PRSS12 (11739890_at) / RFU BIN1 (11741810_x_at) / Fold change /veh BIN1 (11741810_x_at) / RFU WNT11 (11732464_a_at) / Fold change /veh WNT11 (11732464_a_at) / RFU C10orf10 (11716521_a_at) / Fold change /veh C10orf10 (11716521_a_at) / RFU C5orf56 (11738089_at) / Fold change /veh C5orf56 (11738089_at) / RFU CYB561 (11721691_x_at) / Fold change /veh CYB561 (11721691_x_at) / RFU ANKRD19P (11752326_a_at) / Fold change /veh ANKRD19P (11752326_a_at) / RFU OR2T12 /// OR2T33 /// OR2T8 (11738714_s_at) / Fold change /veh OR2T12 /// OR2T33 /// OR2T8 (11738714_s_at) / RFU VCAN (11748164_a_at) / Fold change /veh VCAN (11748164_a_at) / RFU JSRP1 (11732532_at) / Fold change /veh JSRP1 (11732532_at) / RFU KRTAP10-11 (11738290_x_at) / Fold change /veh KRTAP10-11 (11738290_x_at) / RFU MYO3A (11730013_a_at) / Fold change /veh MYO3A (11730013_a_at) / RFU EBF3 (11725865_a_at) / Fold change /veh EBF3 (11725865_a_at) / RFU CAMK2N1 (11719241_x_at) / Fold change /veh CAMK2N1 (11719241_x_at) / RFU C5orf56 (11738088_a_at) / Fold change /veh C5orf56 (11738088_a_at) / RFU OLFML3 (11715873_a_at) / Fold change /veh OLFML3 (11715873_a_at) / RFU LOC100653217 /// NTM (11731650_a_at) / Fold change /veh LOC100653217 /// NTM (11731650_a_at) / RFU MAPK11 (11762145_a_at) / Fold change /veh MAPK11 (11762145_a_at) / RFU FIZ1 (11724087_x_at) / Fold change /veh FIZ1 (11724087_x_at) / RFU OASL (11726364_x_at) / Fold change /veh OASL (11726364_x_at) / RFU SOX15 (11748057_x_at) / Fold change /veh SOX15 (11748057_x_at) / RFU CD79A (11719716_a_at) / Fold change /veh CD79A (11719716_a_at) / RFU HIST1H1D (11736915_at) / Fold change /veh HIST1H1D (11736915_at) / RFU CASKIN2 (11723855_a_at) / Fold change /veh CASKIN2 (11723855_a_at) / RFU LOC730098 (11760151_x_at) / Fold change /veh LOC730098 (11760151_x_at) / RFU OR4N2 (11742367_at) / Fold change /veh OR4N2 (11742367_at) / RFU PRRT2 (11749266_a_at) / Fold change /veh PRRT2 (11749266_a_at) / RFU SNX32 (11753110_a_at) / Fold change /veh SNX32 (11753110_a_at) / RFU CDHR5 (11726645_a_at) / Fold change /veh CDHR5 (11726645_a_at) / RFU RCAN1 (11760418_a_at) / Fold change /veh RCAN1 (11760418_a_at) / RFU FAM167A (11723789_a_at) / Fold change /veh FAM167A (11723789_a_at) / RFU FAM26E (11764081_at) / Fold change /veh FAM26E (11764081_at) / RFU ISYNA1 (11749810_s_at) / Fold change /veh ISYNA1 (11749810_s_at) / RFU ACY1 (11761880_at) / Fold change /veh ACY1 (11761880_at) / RFU 11764098_at / Fold change /veh 11764098_at / RFU SAMD14 (11745864_x_at) / Fold change /veh SAMD14 (11745864_x_at) / RFU NPB (11741838_a_at) / Fold change /veh NPB (11741838_a_at) / RFU TMPRSS6 (11731388_a_at) / Fold change /veh TMPRSS6 (11731388_a_at) / RFU KRTAP10-2 (11738614_at) / Fold change /veh KRTAP10-2 (11738614_at) / RFU ARHGAP8 /// PRR5-ARHGAP8 (11727945_x_at) / Fold change /veh ARHGAP8 /// PRR5-ARHGAP8 (11727945_x_at) / RFU KRTAP5-7 /// NADSYN1 (11734609_at) / Fold change /veh KRTAP5-7 /// NADSYN1 (11734609_at) / RFU RASL12 (11751679_a_at) / Fold change /veh RASL12 (11751679_a_at) / RFU CDKN2B (11736163_a_at) / Fold change /veh CDKN2B (11736163_a_at) / RFU PRF1 (11729649_at) / Fold change /veh PRF1 (11729649_at) / RFU, ZNF638 /// ZNF638-IT1 / Fold change vs veh, ZNF638 /// ZNF638-IT1 / RFU, PANK3 / Fold change vs veh, PANK3 / RFU, SH3YL1 / Fold change vs veh, SH3YL1 / RFU, ZEB2 / Fold change vs veh, ZEB2 / RFU, NRIP1 / Fold change vs veh, NRIP1 / RFU, PTTG1IP / Fold change vs veh, PTTG1IP / RFU, CAPN2 / Fold change vs veh, CAPN2 / RFU, MED14 / Fold change vs veh, MED14 / RFU, SNORA58 / Fold change vs veh, SNORA58 / RFU, C1orf63 / Fold change vs veh, C1orf63 / RFU, LRRFIP1 / Fold change vs veh, LRRFIP1 / RFU, NDUFAF7 / Fold change vs veh, NDUFAF7 / RFU, SLC12A2 / Fold change vs veh, SLC12A2 / RFU, IBTK / Fold change vs veh, IBTK / RFU, ESF1 / Fold change vs veh, ESF1 / Fold change vs veh, TMEM50B / RFU, TAOK1 / Fold change vs veh, TAOK1 / RFU, ACBD3 / Fold change vs veh, ACBD3 / RFU, TMA16 / Fold change vs veh, TMA16 / RFU, RWDD3 / Fold change vs veh, RWDD3 / RFU, BCAT1 / Fold change vs veh, BCAT1 / RFU, EDEM3 / Fold change vs veh, EDEM3 / RFU, TMEM33 / Fold change vs veh, TMEM33 / RFU, WDR75 / Fold change vs veh, WDR75 / RFU, AHCTF1 / Fold change vs veh, AHCTF1 / RFU, TFRC / Fold change vs veh, TFRC / RFU, ZDHHC17 / Fold change vs veh, ZDHHC17 / RFU, NOM1 / Fold change vs veh, NOM1 / RFU, ARL8B / Fold change vs veh, ARL8B / RFU, ZBTB11 / Fold change vs veh, ZBTB11 / RFU, TAMM41 / Fold change vs veh, TAMM41 / RFU, KIAA1704 /// LOC100996395 / Fold change vs veh, KIAA1704 /// LOC100996395 / RFU, ING1 / Fold change vs veh, ING1 / RFU, TRMT61B / Fold change vs veh, TRMT61B / RFU, FUBP3 / Fold change vs veh, FUBP3 / RFU, TP53 / Fold change vs veh, TP53 / RFU, TNKS2 / Fold change vs veh, TNKS2 / RFU, ZFP14 / Fold change vs veh, ZFP14 / RFU, ACTR2 / Fold change vs veh, ACTR2 / RFU, PPP3R1 / Fold change vs veh, PPP3R1 / RFU, PIK3R1 / Fold change vs veh, PIK3R1 / RFU, HNRNPA1 / Fold change vs veh, HNRNPA1 / RFU, RNF170 / Fold change vs veh, RNF170 / RFU, ZNF28 / Fold change vs veh, ZNF28 / RFU, RNGTT / Fold change vs veh, RNGTT / RFU, OGT / Fold change vs veh, OGT / RFU, BRD1 / Fold change vs veh, BRD1 / RFU, MARS / Fold change vs veh, MARS / RFU, ZNF655 / Fold change vs veh, ZNF655 / RFU, FAHD1 / Fold change vs veh, FAHD1 / RFU, BDP1 / Fold change vs veh, BDP1 / RFU, LRRCC1 / Fold change vs veh, LRRCC1 / RFU, ARID1A / Fold change vs veh, ARID1A / RFU, ZNF146 / Fold change vs veh, ZNF146 / RFU, ZNF330 / Fold change vs veh, ZNF330 / RFU, GPN3 / Fold change vs veh, GPN3 / RFU, C9orf123 / Fold change vs veh, C9orf123 / RFU, N4BP2L2 / Fold change vs veh, N4BP2L2 / RFU, ARFIP1 / Fold change vs veh, ARFIP1 / RFU, FAM179B / Fold change vs veh, FAM179B / RFU, BCL10 / Fold change vs veh, BCL10 / RFU, UHRF1BP1L / Fold change vs veh, UHRF1BP1L / RFU, BET1 / Fold change vs veh, BET1 / RFU, CNOT2 / Fold change vs veh, CNOT2 / RFU, ZNF268 / Fold change vs veh, ZNF268 / Fold change vs veh, ZNF507 / RFU, DGCR2 / Fold change vs veh, DGCR2 / RFU, WDSUB1 / Fold change vs veh, WDSUB1 / Fold change vs veh, HSP90B1 /// MIR3652 / RFU, ADSS / Fold change vs veh, ADSS / RFU, GK / Fold change vs veh, GK / RFU, ZNF148 / Fold change vs veh, ZNF148 / RFU, TAF9 / Fold change vs veh, TAF9 / RFU, SLC1A5 / Fold change vs veh, SLC1A5 / RFU, SLMO2 / Fold change vs veh, SLMO2 / RFU, ABCC4 / Fold change vs veh, ABCC4 / RFU, LOC101060439 /// RAP1B / Fold change vs veh, LOC101060439 /// RAP1B / RFU, RFX7 / Fold change vs veh, RFX7 / RFU, GTPBP10 / Fold change vs veh, GTPBP10 / RFU, CNEP1R1 / Fold change vs veh, CNEP1R1 / RFU, BIVM-ERCC5 /// ERCC5 / Fold change vs veh, BIVM-ERCC5 /// ERCC5 / RFU, ILF3 / Fold change vs veh, ILF3 / RFU 11762660_at / Fold change /veh 11762660_at / RFU VCAN (11757783_s_at) / Fold change /veh VCAN (11757783_s_at) / RFU DDX43 (11728927_at) / Fold change /veh DDX43 (11728927_at) / RFU KRT8 (11758188_x_at) / Fold change /veh KRT8 (11758188_x_at) / RFU NKD1 (11759106_at) / Fold change /veh NKD1 (11759106_at) / RFU SRD5A1 (11742802_a_at) / Fold change /veh SRD5A1 (11742802_a_at) / RFU TPSAB1 /// TPSB2 (11721975_s_at) / Fold change /veh TPSAB1 /// TPSB2 (11721975_s_at) / RFU GSTM3 (11746129_a_at) / Fold change /veh GSTM3 (11746129_a_at) / RFU IL23R (11737362_x_at) / Fold change /veh IL23R (11737362_x_at) / RFU TMEM51 (11727254_a_at) / Fold change /veh TMEM51 (11727254_a_at) / RFU PIWIL2 (11732686_x_at) / Fold change /veh PIWIL2 (11732686_x_at) / RFU ORM1 (11744905_x_at) / Fold change /veh ORM1 (11744905_x_at) / RFU CCDC152 (11743942_at) / Fold change /veh CCDC152 (11743942_at) / RFU ECM1 (11717891_a_at) / Fold change /veh ECM1 (11717891_a_at) / RFU IL23R (11748794_a_at) / Fold change /veh IL23R (11748794_a_at) / RFU TNFAIP8L3 (11732012_x_at) / Fold change /veh TNFAIP8L3 (11732012_x_at) / RFU MBOAT4 (11741988_at) / Fold change /veh MBOAT4 (11741988_at) / RFU 11764193_at / Fold change /veh 11764193_at / RFU TMEM53 (11763286_at) / Fold change /veh TMEM53 (11763286_at) / RFU MAGEB2 (11727129_at) / Fold change /veh MAGEB2 (11727129_at) / RFU TMEM200A (11744735_a_at) / Fold change /veh TMEM200A (11744735_a_at) / RFU CCDC152 (11751479_a_at) / Fold change /veh CCDC152 (11751479_a_at) / RFU FAM211A (11726209_a_at) / Fold change /veh FAM211A (11726209_a_at) / RFU RGS16 (11746705_a_at) / Fold change /veh RGS16 (11746705_a_at) / RFU VCAN (11755009_s_at) / Fold change /veh VCAN (11755009_s_at) / RFU RHOB (11743442_s_at) / Fold change /veh RHOB (11743442_s_at) / RFU RGS16 (11720943_a_at) / Fold change /veh RGS16 (11720943_a_at) / RFU RGS16 (11720944_at) / Fold change /veh RGS16 (11720944_at) / RFU, VPS4B / Fold change vs veh, VPS4B / RFU, CREB1 / Fold change vs veh, CREB1 / RFU, DNAJC13 / Fold change vs veh, DNAJC13 / RFU, GNAQ / Fold change vs veh, GNAQ / RFU, CDK5R1 / Fold change vs veh, CDK5R1 / RFU, ZRANB3 / Fold change vs veh, ZRANB3 / RFU, CUL4A / Fold change vs veh, CUL4A / RFU, CCNY / Fold change vs veh, CCNY / RFU, UFL1 / Fold change vs veh, UFL1 / RFU, COG3 / Fold change vs veh, COG3 / RFU, DIAPH2 / Fold change vs veh, DIAPH2 / RFU, SKA2 / Fold change vs veh, SKA2 / RFU, AFF3 / Fold change vs veh, AFF3 / RFU, LMF1 / Fold change vs veh, LMF1 / RFU, IPO11 / Fold change vs veh, IPO11 / RFU, DFFB / Fold change vs veh, DFFB / RFU, FOXP1 / Fold change vs veh, FOXP1 / RFU, CARD8 / Fold change vs veh, CARD8 / RFU, STRN3 / Fold change vs veh, STRN3 / RFU, ADK / Fold change vs veh, ADK / RFU, RASSF2 / Fold change vs veh, RASSF2 / RFU, WIPF1 / Fold change vs veh, WIPF1 / RFU, LARP1B / Fold change vs veh, LARP1B / RFU, RASA1 / Fold change vs veh, RASA1 / RFU, RB1 / Fold change vs veh, RB1 / RFU, PPFIA1 / Fold change vs veh, PPFIA1 / RFU, MAT2A / Fold change vs veh, MAT2A / RFU, CCT5 / Fold change vs veh, CCT5 / RFU, WDR92 / Fold change vs veh, WDR92 / RFU, CUX1 / Fold change vs veh, CUX1 / RFU, TTC7A / Fold change vs veh, TTC7A / RFU, TMEM135 / Fold change vs veh, TMEM135 / RFU, DEPTOR / Fold change vs veh, DEPTOR / RFU, CPM / Fold change vs veh, CPM / RFU, DNAJB6 / Fold change vs veh, DNAJB6 / RFU, CACNA2D3 / Fold change vs veh, CACNA2D3 / RFU, DTX4 / Fold change vs veh, DTX4 / RFU, TFCP2 / Fold change vs veh, TFCP2 / RFU, GMCL1 /// GMCL1P1 / Fold change vs veh, GMCL1 /// GMCL1P1 / RFU, AEBP2 / Fold change vs veh, AEBP2 / RFU, SNHG1 /// SNORD22 /// SNORD25 /// SNORD26 /// SNORD27 /// SNORD28 /// SNORD29 /// SNORD31 / Fold change vs veh, SNHG1 /// SNORD22 /// SNORD25 /// SNORD26 /// SNORD27 /// SNORD28 /// SNORD29 /// SNORD31 / Fold change (Aza/veh), C12orf56 (ProbeSet 11735607_a_at) / Fold change (ACY-1035/veh), C12orf56 (ProbeSet 11735607_a_at) / Fold change (Aza/veh), FGFR1OP (ProbeSet 11751329_s_at) / Fold change (ACY-1035/veh), FGFR1OP (ProbeSet 11751329_s_at) / Fold change (Aza/veh), VPS36 (ProbeSet 11739960_a_at) / Fold change (ACY-1035/veh), VPS36 (ProbeSet 11739960_a_at) / RFU SYPL1 (11715823_x_at) / Fold change /veh SYPL1 (11715823_x_at) / RFU IGFBP7 (11715501_s_at) / Fold change /veh IGFBP7 (11715501_s_at) / RFU REEP3 (11722064_at) / Fold change /veh REEP3 (11722064_at) / RFU IGLL1 (11728026_x_at) / Fold change /veh IGLL1 (11728026_x_at): dose or concentration left out as unconfirmed
# Conditions: MV-4-11 cells, 48 hours
structure (smiles),measurement,value
Nc1ccc(-c2cccs2)cc1NC(=O)c1ccc2c(c1)cc(C1CC1)n2CCN1CCOCC1 [ACY-1035],RFU MYO3A (11730013_a_at),90.31 RFU
